Data reported in ChEMBL document CHEMBL1149041, “Polypropionates from the Mediterranean Mollusk Elysia timida” (J Nat Prod, 1994).

These compounds were tested on Gambusia affinis (assay: Ichthyotoxicity against Gambusia affinis at 5 ppm). Details: in vivo; call rule not given here.
Format: organism-based
For `CC/C=C(\C)[C@H]1C(C)=CC(C)=C[C@]1(C)c1oc(OC)c(C)c(=O)c1C`, the Activity was “Active”. For `C/C=C(\C)[C@H]1C(C)=C[C@@]2(C)[C@@H]1[C@]2(C)c1oc(OC)c(C)c(=O)c1C`, the Activity was “Active”. With `CC/C=C(\C)[C@H]1C(C)=C[C@@]2(C)[C@@H]1[C@]2(C)c1oc(OC)c(C)c(=O)c1C` [PHOTODEOXYTRIDACHIONE] the Activity was “Active”.
